In US11352350B2, “IRAK degraders and uses thereof” (Kymera Therapeutics, Inc., priority 2018, dated 2022):
Read-outs that look alike come from different tables or passages of the source.

Key:
IRAK4 [1] = target: T1, IRAK4 (Homo sapiens (Human), UniProt Q9NWZ3); assay: IRAK4 MSD degradation in OCI-LY10; type: cell-based; conditions: MSD
Method in brief: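 Remaining IRAK4 quantified by electrochemiluminescent MSD sandwich assay with two anti-IRAK4 antibodies. Compounds were dosed as 8 concentrations in 1:3 steps from a 1 to 10 μM final top on OCI-LY10 cells, incubated 4 to 24 h at 37° C. under 5% CO2. DC50 fitted with a three-parameter logistic curve.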

OCI-LY10 = assay: CTG Cell Viability Assay - OCI-LY10; type: cell-based, human; conditions: OCI-LY10, 4 days, read-out: CTG Cell Viability Assay - OCI-LY10: Average external-IC50
Method in brief: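 Viability read by CellTiter-Glo luminescence after 4 days at 37° C under 5% CO2 with compound (top 10 μM final, 1:3 steps, 9 doses, DMSO 0.2%). Three-parameter logistic fit gave IC50.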

IRAK4 [2] = target: T1, IRAK4; assay: IRAK4 degradation in human whole blood monocyte - flow cytometry; type: cell-based; conditions: read-out: IRAK4 degradation in whole blood monocyte-Flow cytometry: Average external Abs IC50
Description: (§1) Human whole blood IRAK4 degradation flow assay. Whole blood was collected in heparinized tubes and plated on the same day as draw (day 0). Whole blood was aliquoted into deep well plates. Compound plates were prepared and a 10 point, 5-fold dilution was performed with a final DMSO concentration of 0.1%. Compound was added to whole blood deep well plate, sealed and incubated at 37° C., 5% CO2 for 20 hours (for 4 hour treatment, compounds were prepared and added the following day). Following the treatment incubation period (day 1), BD lyse fix (BD #558049) was added to the whole blood plate, placed on plate shaker for 30 seconds and incubated for 10 mins at room temperature. Whole blood was then spun down and washed two times with PBS/0.5% BSA, aspirated to pellet and placed into −80° C. freezer until further processing for flow. On the flow run day, whole blood plates were thawed and samples were transferred to PCR plates. The pre-perm staining cocktail (CD3 Ax488/CD8 BUV805/CD14 BUV395/CD16/56 BV711/CD19 BV785) was added to samples and incubated for 30 minutes at room temperature. Samples were washed two times and permeabilized with Methanol for 10 minutes at 4° C. Samples were washed two times and the post-perm staining cocktail (CD4 PE/IRAK4 Ax647 BD #560315) was added and incubated for 30 minutes at room temperature. Samples were washed two times with PBS/BSA and run on a BD LSRFortessa. Mononuclear cells are gated by SSCH/FSCH and single cells. Monocytes are then gated through CD14 positive gate and lymphocytes are gated through CD14 negative gate. To determine absolute DC50 and max degradation values, MFI values were normalized to DMSO max and 20 hour 10 μM min control. Twenty hour dose curves were calculated using a 4 parameter logistic regression curve fit, no constraints (Top doses were removed if hook effects were observed and the bottom was constrained to 0).

IRAK4 [3] = target: T1, IRAK4; assay: IRAK4 degradation in human whole blood lymphocyte - flow cytometry; type: cell-based; conditions: read-out: IRAK4 degradation in whole blood lymphocyte-Flow cytometry: Average external Abs IC50
Description: as §1

TNFα [4] = assay: Human PBMC LPS TNFα assay; type: cell-based; conditions: hPBMC, LPS stimulation, read-out: IRAK4 hPBMC LPS TNF-α inhibition: Average external-IC50
Description: Human PBMC LPS TNFα assay. Frozen PBMCs were thawed into RPMI with 10% FBS/1% penicillin/streptomycin and same day plated into 96 well plates at 200,000 PBMC/[…] media per well. Compound plates were prepared in DMSO with D300 cassette as 8-point dose curves in duplicate, starting dose 2 μM, 5-fold. Compounds are added 200 nL into cells for final 200 μL per well. Compound and cells were incubated at 37° C., 5% CO2 for 20 hours. After twenty hours of pretreatment with the compounds, LPS (01 1 1:B4) (Sigma #L2637) was added at 100 ng/ml final concentration and PBMCs incubated an additional five hours at 37° C., 5% CO2. Following assay completion, PBMC plates were spun down at 2000 rpm for 10 minutes. 100 uL of supernatant was carefully removed and placed into a new 96 well Costar (#3879) plate and stored at −80° C. until further analysis. Meso scale Discovery (MSD) human V-plex assays were used to measure cytokine levels. On day of cytokine analysis, supernatant samples were thawed, diluted with V-plex diluent #2, and directly to MSD plates. Assay was further completed per standard manufacturer's protocol. Cytokine data was normalized to LPS stimulated and unstimulated controls. Prism Graphpad was used to generate IC50 using 4 parameter logistic regression curve, free-fit.

TNFα [5] = assay: Human whole blood LPS TNFα assay; type: cell-based; conditions: 20 h pretreatment, LPS 5 h, read-out: IRAK4 human whole blood LPS TNFa inhibition: Average external-IC50
Description: Human Whole blood LPS TNFα assay. Whole blood was collected fresh and plated same day into 96 well plates at 180 μL per well. Compound plates were prepared in DMSO as 8-point dose curves in duplicate, starting dose 2 μM, 5-fold. Compounds are added 20 μL into blood for final 200 μL per well. Compound and cells were incubated at 37° C., 5% CO2 for 20 hours. After twenty hours of pretreatment with the compounds, LPS (01 1 1:B4) (Sigma #L2637) was added at 100 ng/ml final concentration and blood incubated an additional five hours at 37° C., 5% CO2. Following assay completion, whole blood plates were spun down at 2000 rpm for 15 minutes at 4° C. 50 μL of plasma was carefully removed and placed into a new 96 well Costar (#3879) plate and stored at −80° C. until further analysis. Meso scale Discovery (MSD) human V-plex assays were used to measure cytokine levels. On day of cytokine analysis, plasma samples were thawed, diluted with V-plex diluent #2, and directly to MSD plates. Assay was further completed per standard manufacturer's protocol. Cytokine data was normalized to LPS stimulated and unstimulated controls. Prism Graphpad was used to generate IC50 using 4 parameter logistic regression curve, free-fit.

[6] = OCI-LY10, 4 hrs, read-out: IRAK4 MSD degradation in OCI-LY10 at 4 hrs: Average external-Abs DC50

T1 sequence (Q9NWZ3 whole entry): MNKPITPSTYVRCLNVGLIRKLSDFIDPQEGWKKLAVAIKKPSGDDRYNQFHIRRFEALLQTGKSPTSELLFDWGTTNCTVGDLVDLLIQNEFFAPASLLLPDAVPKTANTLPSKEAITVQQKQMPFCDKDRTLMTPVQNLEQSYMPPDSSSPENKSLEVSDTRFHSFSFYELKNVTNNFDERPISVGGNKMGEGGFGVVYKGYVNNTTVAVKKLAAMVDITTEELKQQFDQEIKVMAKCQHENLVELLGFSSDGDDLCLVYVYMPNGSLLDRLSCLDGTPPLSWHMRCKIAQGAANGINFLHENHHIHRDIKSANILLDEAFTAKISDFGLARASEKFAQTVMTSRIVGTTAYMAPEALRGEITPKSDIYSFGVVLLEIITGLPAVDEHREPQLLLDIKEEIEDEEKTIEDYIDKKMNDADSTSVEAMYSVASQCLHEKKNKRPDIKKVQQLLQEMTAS

| Structure (SMILES) | DC50 (IRAK4 [1]; [6]) [µM] | IC50 (OCI-LY10; Homo sapiens, OCI-Ly10, 96 h) [µM] | DC50 (IRAK4 [2]) [µM] | DC50 (IRAK4 [3]) [µM] | IC50 (TNFα [4]) [µM] | IC50 (TNFα [5]) [µM] | IC50 (IRAK4 [2]) [µM] | IC50 (OCI-LY10) [µM] | DC50 (IRAK4 [1]; OCI-LY10, 24 hrs, read-out: IRAK4 MSD degradation in OCI-LY10 at 24 hrs: Average external-Abs DC50) [µM] |
| --- | --- | --- | --- | --- | --- | --- | --- | --- | --- |
| O=C1CCC(N2C[C@H](c3cccc(C#CCN4CCO[C@@H](CNC[C@H]5CC[C@H](n6cc(NC(=O)c7coc(-c8ccnc(NCC9CC9)c8)n7)c(C(F)F)n6)CC5)C4)c3)OC2=O)C(=O)N1 (stereo partly shown) [I-39] | 0.01 to 0.1 | 0.05 to 0.1 | 0.05 to 0.1 | 0.1 to 0.5 | 0.05 to 0.1 | 0.1 to 0.5 |  |  |  |
| Cn1c(=O)n(C2CCC(=O)NC2=O)c2cccc(CCCOCCN3CCN(C[C@H]4CC[C@H](n5cc(NC(=O)c6coc(-c7ccnc(NCC8CC8)c7)n6)c(C(F)F)n5)CC4)CC3)c21 (stereo partly shown) [I-58] | < 0.01 | 0.05 to 0.1 |  | 0.05 to 0.1 | 0.1 to 0.5 | > 1 | < 0.05 |  |  |
| CN(CCCOCCCc1ccc2c(c1)n(C)c(=O)n2C1CCC(=O)NC1=O)C[C@H]1CC[C@H](n2cc(NC(=O)c3coc(-c4ccnc(NCC5CC5)c4)n3)c(C(F)F)n2)CC1 (stereo partly shown) [I-62] | < 0.01 | 0.05 to 0.1 |  | < 0.05 | 0.1 to 0.5 | > 1 | < 0.05 |  |  |
| CN(C[C@H]1CN(CC#Cc2ccc3c(c2)n(C)c(=O)n3C2CCC(=O)NC2=O)CCO1)C[C@H]1CC[C@H](n2cc(NC(=O)c3coc(-c4ccnc(NCC5CC5)c4)n3)c(C(F)F)n2)CC1 (stereo partly shown) [I-61] | 0.01 to 0.1 | 0.1 to 0.5 | 0.05 to 0.1 | 0.1 to 0.5 | 0.1 to 0.5 | > 1 |  |  |  |
| CN(CCCOCCCc1cccc2c1n(C)c(=O)n2C1CCC(=O)NC1=O)C(=O)[C@H]1CC[C@H](n2cc(NC(=O)c3coc(-c4ccnc(NCC(F)(F)F)c4)n3)c(C(N)=O)n2)CC1 (stereo partly shown) [I-28, N-[3-carbamoyl-1-[4-[3-[3-[1-(2,6-dioxo-3-piperidyl)-3-methyl-2-oxo-benzimidazol-4-yl]propoxy]propyl-methylcarbamoyl]cyclohexyl]pyrazol-4-yl]-2-[2-(2,2,2-trifluoroethylamino)-4-pyridyl]oxazole-4-carboxamide] | < 0.01 |  | 0.05 to 0.1 | 0.1 to 0.5 |  | > 1 |  | < 0.05 |  |
| O=C1CCC(n2c(=O)oc3c(CCCOCCNC(=O)[C@H]4CC[C@H](n5cc(NC(=O)c6coc(-c7ccnc(NCC8CC8)c7)n6)c(C(F)F)n5)CC4)cccc32)C(=O)N1 (stereo partly shown) [I-5] | < 0.01 | < 0.05 | 0.1 to 0.5 | 0.1 to 0.5 |  | > 1 |  |  |  |
| Cn1c(=O)n(C2CCC(=O)NC2=O)c2ccc(CCCOCCNC[C@H]3CC[C@H](n4cc(NC(=O)c5coc(-c6ccnc(NCC(F)(F)F)c6)n5)c(C(N)=O)n4)CC3)cc21 (stereo partly shown) [I-8] | 0.01 to 0.1 | > 1 |  | < 0.05 |  | > 1 | < 0.05 |  |  |
| Cn1c(=O)n(C2CCC(=O)NC2=O)c2ccc(CCCCOCCCCNC[C@H]3CC[C@H](n4cc(NC(=O)c5coc(-c6ccnc(NCC(F)(F)F)c6)n5)c(C(N)=O)n4)CC3)cc21 (stereo partly shown) [I-9] | < 0.01 | > 1 |  | 0.05 to 0.1 |  | > 1 | < 0.05 |  |  |
| NC(=O)c1nn([C@H]2CC[C@H](CNCCCOCCCc3cccc4c3oc(=O)n4C3CCC(=O)NC3=O)CC2)cc1NC(=O)c1coc(-c2ccnc(NCC(F)(F)F)c2)n1 (stereo partly shown) [I-12] | 0.01 to 0.1 | 0.5 to 1 | 0.5 to 1 | 0.1 to 0.5 |  | 0.5 to 1 |  |  |  |
| CN(CC1CCN(Cc2cccc3c2n(C)c(=O)n3C2CCC(=O)NC2=O)CC1)C[C@H]1CC[C@H](n2cc(NC(=O)c3coc(-c4ccnc(NCC5CC5)c4)n3)c(C(F)F)n2)CC1 (stereo partly shown) [I-76] | < 0.01 | < 0.05 | 0.05 to 0.1 | 0.05 to 0.1 | < 0.05 |  |  |  |  |
| CN(CCCCOCCCCc1cccc2c1n(C)c(=O)n2C1CCC(=O)NC1=O)C[C@H]1CC[C@H](n2cc(NC(=O)c3coc(-c4ccnc(NCC5CC5)c4)n3)c(C(F)F)n2)CC1 (stereo partly shown) [I-67] | < 0.01 | < 0.05 | 0.05 to 0.1 | 0.05 to 0.1 | 0.05 to 0.1 |  |  |  |  |
| CN(CCCOCCCc1cccc2c1n(C)c(=O)n2C1CCC(=O)NC1=O)C[C@H]1CC[C@H](n2cc(NC(=O)c3cccc(C(F)(F)F)n3)c(C(F)F)n2)CC1 (stereo partly shown) [I-44] | > 1 | > 1 |  |  | > 1 | > 1 |  |  | > 1 |
| CN(C[C@@H]1CN(CCCc2ccc3c(c2)n(C)c(=O)n3C2CCC(=O)NC2=O)CCO1)C[C@H]1CC[C@H](n2cc(NC(=O)c3coc(-c4ccnc(NCC5CC5)c4)n3)c(C(C)(C)O)n2)CC1 (stereo partly shown) [I-33] | < 0.01 | > 1 | 0.5 to 1 | < 0.05 | 0.5 to 1 |  |  |  |  |
| Cn1c(=O)n(C2CCC(=O)NC2=O)c2cccc(CCCOCCOCCNC[C@H]3CC[C@H](n4cc(NC(=O)c5coc(-c6ccnc(NCC(F)(F)F)c6)n5)c(C(N)=O)n4)CC3)c21 (stereo partly shown) [I-6] | < 0.01 | > 1 |  | < 0.05 |  | > 1 | < 0.05 |  |  |
| CN(CCCOCCCc1cccc2c1n(C)c(=O)n2C1CCC(=O)NC1=O)C(=O)[C@H]1CC[C@H](n2cc(NC(=O)c3coc(-c4ccnc(NCC(F)(F)F)c4)n3)c(C(N)=O)n2)CC1 (stereo partly shown) [I-29] | < 0.01 |  | 0.5 to 1 | 0.5 to 1 |  | > 1 |  | > 1 |  |
| CN(CC1CCN(CCC#Cc2ccc3c(c2)n(C)c(=O)n3C2CCC(=O)NC2=O)CC1)C(=O)[C@H]1CC[C@H](n2cc(NC(=O)c3coc(-c4ccnc(NCC5CC5)c4)n3)c(C(F)F)n2)CC1 (stereo partly shown) [I-27] | < 0.01 | < 0.05 |  | < 0.05 |  | 0.1 to 0.5 | < 0.05 |  |  |
| O=C1CCC(n2c3cc(CCCOCCOCCNC[C@H]4CC[C@H](n5cc(NC(=O)c6coc(-c7ccnc(NCC8CC8)c7)n6)c(C(F)F)n5)CC4)ccc3c3cccnc32)C(=O)N1 (stereo partly shown) [I-81] | 0.1 to 1 | > 1 |  | > 1 | 0.5 to 1 |  | > 1 |  |  |
| CN(C[C@H]1CN(CCCc2ccc3c(c2)n(C)c(=O)n3C2CCC(=O)NC2=O)CCO1)C(=O)[C@H]1CC[C@H](n2cc(NC(=O)c3coc(-c4ccnc(NCC5CC5)c4)n3)c(C(F)F)n2)CC1 (stereo partly shown) [I-18] | < 0.01 | 0.05 to 0.1 |  | 0.1 to 0.5 |  | 0.1 to 0.5 | < 0.05 |  |  |
